# Results taken from patent US20030078190A1 (priority 2001, published 2003).
# Where “and” joins values, the source holds several entries; their conditions need not be identical. Equal entries are not always repeated. Entries after “also recorded” stand apart in the source; their conditions may differ. Where two headings read alike, the source gives them in different places. Marks after values point to notes of the source that are not given here.
# Legend:
# [1] = test system: patients with heavy proteinuria (>1.5 g/day); test: 24-hour urinary protein excretion with high-dose candesartan cilexetil (Example 1); assay type: in vivo, human
# Method: The optimal doses of ACEIs and/or ARBs for maximal reduction in urinary protein excretion are not known. Moreover, beneficial effects from ARBs, such as tissue protection owing to a more complete blockade of the RAAS, may be independent of blood pressure-lowering by ARBs. This investigation was designed to evaluate whether increasing the dose of candesartan cilexetil, in subjects already on the FDA's maximum recommended daily doses of 32 mg, would induce a further reduction in 24-hour urinary protein excretion in patients with heavy proteinuria (urinary protein excretion >1.5 g/day; mean 4.4±2 g/day).
# (§1) Ten older patients (67±10 years; 80% male) with heavy proteinuria (>1.5 g/day) were started on 16 or 32 mg of candesartan cilexetil daily. Several patients had renal biopsies performed. Eight patients had nephrotic syndrome, four of whom had diabetic nephropathy, two had focal sclerosis, one had membranous nephropathy, and one had postinfectious nephropathy. The two other patients had nephrosclerosis, one being extremely severe and associated with moderate interstitial disease. Most of the patients were already receiving multiple medications for optimal BP control which included the following: calcium channel blockers (CCBs, 80%), diuretics (70%), beta blockers (40%), alpha blockers (40%), and ACEI (40%). Additional concurrent medications included lipid-lowering agents, anti-ischemic drugs and hypoglycemic agents. No effort was made to standardize any class of medications other than ARBs, and no other controls, such as sodium restriction, were instituted as patients were treated using standard office practice procedures.
# (§2) After 1-2 months of therapy, the dose of candesartan cilexetil was titrated upwards (at 16-32 mg dose increments) to 96 mg/d, while 24-hour urine samples were obtained to measure protein and creatinine. The candesartan doses were increased independently of the need for BP control. Subsequently, the effect of increased doses of candesartan on 24-hour urinary protein and creatinine excretion, BP, serum creatinine and potassium were serially measured.
# (§3) Baseline data was utilized either prospectively or from past patient records collected close to the time of the clinical observation period. […] Thus, no statistical analysis was performed but general trends are noted.
# [2] = test system: patients with heavy proteinuria (>1.5 g/day); test: Blood pressure, serum creatinine, serum potassium and tolerability during candesartan dose titration (Example 1); assay type: in vivo, human
# Method: as §1, §2, §3
# [3] = test system: patients with dilated aortic roots; test: Aortic root size by M-mode echocardiography under ARB therapy (Example 10); assay type: in vivo, human
# Source text: Since regression of the aortic root dilatation on echocardiogram was so unusual, a study was undertaken to evaluate other individuals with aortic root dilatation to determine whether aortic root aneurysms or dilatation could be reduced using ARBs. […] In order to evaluate one group of homogeneous subjects, the following were inclusion criteria: (1) same modality of testing to determine the thickness of the aortic root; (2) same instrument; (3) same interpreter of echocardiogram; (4) subjects needed to be on medication (antihypertensive including ARB or ARB if normotensive); (5) at least 9 months of ARB therapy; and (6) the disease was strictly aneurysm, not CAD or CHF. Applying the above inclusion criteria, a group of 15 subjects was selected for analysis. The group included 13 men and 2 women, aged 66.4±13.3 years and weighing 188.8±29.6 pounds. Aortic root sizes were measured using M-mode echocardiography with a leading-edge-to-leading-edge measurement of the maximal distance between the anterior aortic root wall and the posterior aortic root wall, measured at a level immediately above the cusps at end diastole. The standard deviation for intra-observer error was ±2 mm. Interval changes in aortic root size were measured as initial value-most recent value, where a positive resulting value indicated a corresponding decrease in aortic root size over the interval.
# [4] = test system: hypertensive patients; conditions: cited from earlier work; for BP reductions in comparative short-term trials between ACEI and ARBs: in vivo
# [5] = target: T1, AT1 receptor (Homo sapiens, UniProt P30556); conditions: cited from earlier work
# T1 sequence (P30556 1-359): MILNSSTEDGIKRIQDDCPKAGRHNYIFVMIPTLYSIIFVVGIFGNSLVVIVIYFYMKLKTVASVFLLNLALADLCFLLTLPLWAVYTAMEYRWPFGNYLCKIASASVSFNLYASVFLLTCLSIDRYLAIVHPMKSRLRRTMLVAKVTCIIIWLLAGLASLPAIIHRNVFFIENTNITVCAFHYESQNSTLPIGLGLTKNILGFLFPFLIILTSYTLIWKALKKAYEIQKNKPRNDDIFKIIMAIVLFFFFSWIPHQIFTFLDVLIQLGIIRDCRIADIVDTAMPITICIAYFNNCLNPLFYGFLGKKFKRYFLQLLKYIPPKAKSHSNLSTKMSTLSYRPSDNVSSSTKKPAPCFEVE
# [6] = test system: subjects with both diabetic and non-diabetic renal disease; test: Preliminary unpublished observations: microalbuminuria under supramaximal ARB doses; assay type: in vivo, human
# Source text: Strategies to enhance blockade of the tissue RAAS may result in greater renoprotective effects, by further reducing intraglomerular hydrostatic pressure and glomerular hypertrophy, and providing additional improvements in glomerular permselectivity. […] Utilizing ARBs rather than ACEI was chosen owing to evidence that ARBs provide enhanced tissue RAAS blockade by prevention of the ACE escape phenomenon and thus more complete blockade of angiotensin II (AII) produced by both ACE and non-ACE pathways.
# [7] = test system: normotensive, proteinuric patients with IgA nephropathy; conditions: increasing dose of lisinopril; cited from earlier work
# [8] = test system: normotensive patients with IgA nephropathy; conditions: cited from earlier work
# [9] = target: tissue ACE (Homo sapiens, UniProt P12821); conditions: compared with other ACEI (e.g., enalapril); due to lipophilic properties; cited from earlier work
# Chain of tissue ACE (P12821 30-1306): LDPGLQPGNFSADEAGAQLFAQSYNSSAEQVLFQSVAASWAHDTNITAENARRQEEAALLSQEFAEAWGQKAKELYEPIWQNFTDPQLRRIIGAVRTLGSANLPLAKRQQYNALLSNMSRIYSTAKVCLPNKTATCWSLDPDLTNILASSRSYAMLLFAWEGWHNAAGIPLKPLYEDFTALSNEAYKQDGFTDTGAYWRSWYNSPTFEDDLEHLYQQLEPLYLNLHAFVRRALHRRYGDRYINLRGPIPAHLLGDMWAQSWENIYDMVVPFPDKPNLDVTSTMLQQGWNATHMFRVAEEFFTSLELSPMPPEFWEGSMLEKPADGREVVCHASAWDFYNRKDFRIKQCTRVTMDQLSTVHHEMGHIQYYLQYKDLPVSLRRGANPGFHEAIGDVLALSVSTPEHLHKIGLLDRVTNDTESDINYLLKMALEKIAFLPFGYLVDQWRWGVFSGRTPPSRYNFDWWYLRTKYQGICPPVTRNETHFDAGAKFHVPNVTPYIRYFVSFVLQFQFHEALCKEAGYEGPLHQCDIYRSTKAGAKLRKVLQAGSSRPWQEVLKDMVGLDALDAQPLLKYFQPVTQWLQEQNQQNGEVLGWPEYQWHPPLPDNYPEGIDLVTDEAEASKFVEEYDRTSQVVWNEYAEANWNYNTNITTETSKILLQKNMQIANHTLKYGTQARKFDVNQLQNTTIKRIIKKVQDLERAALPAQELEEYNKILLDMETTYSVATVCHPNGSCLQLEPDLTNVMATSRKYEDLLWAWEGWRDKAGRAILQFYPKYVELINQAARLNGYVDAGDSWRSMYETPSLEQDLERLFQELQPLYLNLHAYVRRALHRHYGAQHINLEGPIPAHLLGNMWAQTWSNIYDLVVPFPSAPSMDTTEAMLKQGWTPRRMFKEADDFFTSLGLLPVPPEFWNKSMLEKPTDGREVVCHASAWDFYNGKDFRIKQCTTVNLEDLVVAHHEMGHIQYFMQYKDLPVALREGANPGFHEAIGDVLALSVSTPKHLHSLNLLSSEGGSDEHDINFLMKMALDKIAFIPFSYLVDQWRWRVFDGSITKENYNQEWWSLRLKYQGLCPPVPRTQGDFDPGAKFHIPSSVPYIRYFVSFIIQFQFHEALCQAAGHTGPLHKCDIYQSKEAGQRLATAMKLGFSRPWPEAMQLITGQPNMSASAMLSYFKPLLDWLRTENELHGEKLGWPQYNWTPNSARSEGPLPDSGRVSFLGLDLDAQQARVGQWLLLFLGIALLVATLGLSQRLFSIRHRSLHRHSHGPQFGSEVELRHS
smiles,measurement,setting,value
"CCOc1nc2cccc(C(=O)OC(C)OC(=O)OC3CCCCC3)c2n1Cc1ccc(-c2ccccc2-c2nnn[nH]2)cc1 (stereo not drawn) [Candesartan cilexetil, candesartan cilexetil]","Protein Excretion, Mean","[1]; 16 mg/day column, mean of N=4 (includes one losartan 50 mg and one irbesartan 150 mg value)",2.8 g/day
same,"Protein Excretion, Mean","[1]; 32 mg/day column, mean of N=10 (includes one irbesartan 300 mg value)",2.7 g/day
same,Protein Excretion (24-hour urinary protein excretion rate),"[1]; candesartan cilexetil 16 mg/day, individual patients",3.2 g/day and 6.4 g/day
same,Protein Excretion (24-hour urinary protein excretion rate),"[1]; candesartan cilexetil 32 mg/day, individual patients",1.1 g/day and 2.0 g/day and 0.8 g/day and 4.9 g/day and 3.3 g/day and 2.7 g/day and 6.4 g/day and 4.6 g/day and 1.2 g/day
same,Protein Excretion (24-hour urinary protein excretion rate),"[1]; candesartan cilexetil 48 mg/day, individual patients",0.9 g/day and 0.2 g/day (2×) and 2.6 g/day and 1.7 g/day and 2.9 g/day and 5.8 g/day and 1.2 g/day
same,"Protein Excretion, Mean","[1]; candesartan cilexetil 48 mg/day, mean of N=8",1.9 g/day
same,Protein Excretion (24-hour urinary protein excretion rate),"[1]; candesartan cilexetil 64 mg/day, individual patients",1.7 g/day and 1.1 g/day and 0.4 g/day and 0.2 g/day and 1.3 g/day and 3.0 g/day and 4.7 g/day and 0.7 g/day
same,"Protein Excretion, Mean","[1]; candesartan cilexetil 64 mg/day, mean of N=8",1.6 g/day
same,Protein Excretion (24-hour urinary protein excretion rate),"[1]; candesartan cilexetil 80 mg/day, individual patients",0.9 g/day and 0.5 g/day and 0.3 g/day and 1.6 g/day and 3.4 g/day and 1.4 g/day and 2.4 g/day and 0.6 g/day
same,"Protein Excretion, Mean","[1]; candesartan cilexetil 80 mg/day, mean of N=8",1.4 g/day
same,Protein Excretion (24-hour urinary protein excretion rate),"[1]; candesartan cilexetil 96 mg/day, individual patients",0.6 g/day and 0.2 g/day and 1.8 g/day and 2.3 g/day and 0.7 g/day
same,"Protein Excretion, Mean","[1]; candesartan cilexetil 96 mg/day, mean of N=5",1.1 g/day
same,Effect on 24-hour urinary protein excretion beyond the recommended maximum dose,[1]; dose extended beyond 32 mg/d,progressive reductions in 24-hour urinary protein excretion; also recorded: further reductions in urinary protein excretion in all subjects
same,Safety and tolerability,[2]; doses between 32 and 96 mg,"safe, well-tolerated"
CCOc1nc2cccc(C(=O)O)c2n1Cc1ccc(-c2ccccc2-c2nnn[nH]2)cc1 [candesartan],Interval change in aortic root size (initial value minus most recent value),"[3]; one hypertensive subject, 128 mg/d",8 mm
same,Interval change in aortic root size (initial value minus most recent value),"[3]; one normotensive subject, 64 mg/d",12 mm
same,Decrease in aortic root size,"[3]; ten of 15 subjects, at least 9 months of ARB therapy",more than 2 mm
same,Tolerability,[2]; 96 mg/d,"well tolerated, metabolically neutral"
same,Increase in serum creatinine,"[2]; at the higher doses of candesartan, attributable primarily to two of the ten patients",0.5 to 0.7 mg/dL
same,Serum potassium,[2]; throughout the dosing range of candesartan,4.3 to 4.5 mmol/L
CCOC(=O)[C@H](CCc1ccccc1)N[C@@H](C)C(=O)N1CCC[C@H]1C(=O)O [enalapril],BP reductions in comparative short-term trials between ACEI and ARBs,[4],equivalent BP reductions
CCCCc1ncc(/C=C(\Cc2cccs2)C(=O)O)n1Cc1ccc(C(=O)O)cc1 [eprosartan],Affinity for the AT1 receptor,[5],lower affinity
same,Type of antagonism at the AT1 receptor,[5],surmountable
CCCCC1=NC2(CCCC2)C(=O)N1Cc1ccc(-c2ccccc2-c2nnn[nH]2)cc1 [irbesartan],Affinity for the AT1 receptor,[5],high affinity
same,Type of antagonism at the AT1 receptor,[5],insurmountable
same,Effect on microalbuminuria,[6],additional reductions in microalbuminuria
same,Protein Excretion (24-hour urinary protein excretion rate),"[1]; irbesartan 150 mg, patient 7",0.5** g/day
same,Protein Excretion (24-hour urinary protein excretion rate),"[1]; irbesartan 300 mg, patient 6",0.4^§ g/day
same,BP reductions in comparative short-term trials between ACEI and ARBs,[4],equivalent BP reductions
NCCCC[C@H](N[C@@H](CCc1ccccc1)C(=O)O)C(=O)N1CCC[C@H]1C(=O)O [lisinopril],Renal protective effect of increasing the dose,[7],"additional renal protective effects, independent of any BP reductions"
same,BP reductions in comparative short-term trials between ACEI and ARBs,[4],equivalent BP reductions
CCCCc1nc(Cl)c(CO)n1Cc1ccc(-c2ccccc2-c2nn[nH]n2)cc1 [losartan],Type of antagonism at the AT1 receptor,[5],surmountable
same,Type of antagonism at the AT1 receptor,[5]; listed as Losartan,competitive antagonist
same,Effect on microalbuminuria,[6],additional reductions in microalbuminuria
same,Protein Excretion (24-hour urinary protein excretion rate),"[1]; losartan 50 mg, patient 6",1.1^+ g/day
same,Change of urinary protein excretion on monotherapy,"[8]; either drug as monotherapy, ARB = losartan",−27%
same,Reduction of urinary protein excretion on combined ACEI and ARB therapy,[8]; losartan 50 mg/day added to a moderate dose of an ACEI,69%
same,BP reductions compared with ACEI,[4]; a few studies,smaller BP reductions
same,BP reductions in comparative short-term trials between ACEI and ARBs,[4],equivalent BP reductions
same,Antihypertensive response to add-on therapy,"[4]; losartan 25-50 mg/d added to existing ramipril 2.5-5 mg/d, four-week study of 30 hypertensives",enhanced
CCOC(=O)[C@H](CCc1ccccc1)N[C@@H](C)C(=O)N1Cc2ccccc2C[C@H]1C(=O)O [quinapril],Ability to block tissue ACE activity,[9],better able to block tissue ACE activity
CCOC(=O)[C@H](CCc1ccccc1)N[C@@H](C)C(=O)N1[C@H](C(=O)O)C[C@@H]2CCC[C@@H]21 [ramipril],Additive antihypertensive response to add-on therapy,[4]; ACEI (ramipril) added to existing ARB (losartan) therapy,small and not significant
CCCc1nc2c(C)cc(-c3nc4ccccc4n3C)cc2n1Cc1ccc(-c2ccccc2C(=O)O)cc1 [telmisartan],BP reductions in comparative short-term trials between ACEI and ARBs,[4],equivalent BP reductions
CCCCC(=O)N(Cc1ccc(-c2ccccc2-c2nnn[nH]2)cc1)[C@H](C(=O)O)C(C)C [valsartan],Effect on microalbuminuria,[6],additional reductions in microalbuminuria
same,BP reductions in comparative short-term trials between ACEI and ARBs,[4],equivalent BP reductions
